Results: the supplement of paper PMC4862054

How the values were obtained:
Conditions in all cases: incubation time: 72 h
DU-4475 [1] = experiment: normalised viability (% of control), CellTiter-Blue; higher = more viable cells (100 = DMSO, 0 = benzethonium chloride kill control)
Description: (§1)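 DSRT, CellTiter-Blue viability, 72 h incubation. Signal is normalised to DMSO and benzethonium chloride controls. Value is the normalised response at dose 1.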

MDA-MB-436 [2] = experiment: as above
Description: as §1

CAL-85-1 [3] = experiment: as above
Description: as §1

HCC1937 = experiment: as above
Description: as §1

BT-549 = experiment: as above
Description: as §1

BT-474 [4] = experiment: as above
Description: as §1

MDA-MB-468 = experiment: as above
Description: as §1

MFM-223 [5] = experiment: as above
Description: as §1

CAL-51 [6] = experiment: as above
Description: as §1

MDA-MB-453 [7] = experiment: as above
Description: as §1

Hs578T [8] = experiment: as above
Description: as §1

CAL-148 [9] = experiment: as above
Description: as §1

SK-BR-3 = experiment: as above
Description: as §1

HDQ-P1 = experiment: as above
Description: as §1

HCC1143 [10] = experiment: as above
Description: as §1

CAL-120 [11] = experiment: as above
Description: as §1

HCC1599 [12] = experiment: as above
Description: as §1

MDA-MB-231 = experiment: as above
Description: as §1

CAL-85-1 [13] = experiment: normalised viability (% of control), CellTiter-Blue; higher = more viable cells (about 100 = DMSO control)
How it was run: (§2)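 After 72 h on compound-loaded 384-well plates, breast cancer cell lines received 2.5 µl CellTiter-Blue reagent for 2 h at 37 °C. Fluorescence at 560/590 nm was scaled per plate so that vehicle was 100 and a positive kill control was 0. The value stands for normalised viability at a single listed concentration of the series.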

CAL-148 [14] = experiment: as above
How it was run: as §2

DU-4475 [15] = experiment: normalised viability (% of control), CellTiter-Blue; higher = more viable cells (about 100 = DMSO control)
Description: (§3)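 DSRT, CellTiter-Blue viability, 72 h incubation. Signal is normalised to DMSO and benzethonium chloride controls. Value is the normalised response at dose 3.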

MDA-MB-436 [16] = experiment: as above
Description: as §3

BT-474 [17] = experiment: as above
Description: as §3

MFM-223 [18] = experiment: as above
Description: as §3

CAL-51 [19] = experiment: as above
Description: as §3

MDA-MB-453 [20] = experiment: as above
Description: as §3

Hs578T [21] = experiment: as above
Description: as §3

HCC1143 [22] = experiment: as above
Description: as §3

CAL-120 [23] = experiment: as above
Description: as §3

HCC1599 [24] = experiment: as above
Description: as §3

## Nc1ccccc1NC(=O)c1ccc(CNC(=O)OCc2cccnc2)cc1 [Entinostat]
DU-4475 [1]; 1 nM
  normalised viability: 119%
MDA-MB-436 [2]; 1 nM
  normalised viability: 124%
CAL-85-1 [3]; 1 nM
  normalised viability: 97%
HCC1937; 1 nM
  normalised viability: 80.4%
BT-549; 1 nM
  normalised viability: 107%
BT-474 [4]; 1 nM
  normalised viability: 109%
MDA-MB-468; 1 nM
  normalised viability: 110%
MFM-223 [5]; 1 nM
  normalised viability: 98.7%
CAL-51 [6]; 1 nM
  normalised viability: 110%
MDA-MB-453 [7]; 1 nM
  normalised viability: 113%
Hs578T [8]; 1 nM
  normalised viability: 118%
CAL-148 [9]; 1 nM
  normalised viability: 95.8%
SK-BR-3; 1 nM
  normalised viability: 102%
HDQ-P1; 1 nM
  normalised viability: 113%
HCC1143 [10]; 1 nM
  normalised viability: 95.7%
CAL-120 [11]; 1 nM
  normalised viability: 83.6%
HCC1599 [12]; 1 nM
  normalised viability: 102%
MDA-MB-231; 1 nM
  normalised viability: 102%
CAL-85-1 [13]; 1000 nM
  normalised viability: 85.4%
CAL-148 [14]; 1000 nM
  normalised viability: 78.8%
DU-4475 [15]; 10 nM
  normalised viability: 117%
MDA-MB-436 [16]; 100 nM
  normalised viability: 83.5%
BT-474 [17]; 100 nM
  normalised viability: 106%
MFM-223 [18]; 100 nM
  normalised viability: 100%
CAL-51 [19]; 10 nM
  normalised viability: 114%
MDA-MB-453 [20]; 10 nM
  normalised viability: 120%
Hs578T [21]; 100 nM
  normalised viability: 93.3%
HCC1143 [22]; 100 nM
  normalised viability: 82.2%
CAL-120 [23]; 100 nM
  normalised viability: 85.4%
HCC1599 [24]; 100 nM
  normalised viability: 93.3%

## O=C(/C=C/c1cccnc1)NCCCCC1CCN(C(=O)c2ccccc2)CC1 [FK-866]
DU-4475 [1]; 0.1 nM
  normalised viability: 102%
MDA-MB-436 [2]; 0.1 nM
  normalised viability: 107%
CAL-85-1 [3]; 0.1 nM
  normalised viability: 85.7%
HCC1937; 0.1 nM
  normalised viability: 107%
BT-549; 0.1 nM
  normalised viability: 97.3%
BT-474 [4]; 0.1 nM
  normalised viability: 99.3%
MDA-MB-468; 0.1 nM
  normalised viability: 106%
MFM-223 [5]; 0.1 nM
  normalised viability: 105%
CAL-51 [6]; 0.1 nM
  normalised viability: 101%
MDA-MB-453 [7]; 0.1 nM
  normalised viability: 103%
Hs578T [8]; 0.1 nM
  normalised viability: 105%
CAL-148 [9]; 0.1 nM
  normalised viability: 110%
SK-BR-3; 0.1 nM
  normalised viability: 94.4%
HDQ-P1; 0.1 nM
  normalised viability: 105%
HCC1143 [10]; 0.1 nM
  normalised viability: 97.5%
CAL-120 [11]; 0.1 nM
  normalised viability: 106%
HCC1599 [12]; 0.1 nM
  normalised viability: 105%
MDA-MB-231; 0.1 nM
  normalised viability: 96.6%
CAL-85-1 [13]; 100 nM
  normalised viability: 54.6%
CAL-148 [14]; 100 nM
  normalised viability: 53.7%
DU-4475 [15]; 1 nM
  normalised viability: 84.9%
MDA-MB-436 [16]; 10 nM
  normalised viability: 38%
BT-474 [17]; 10 nM
  normalised viability: 91.6%
MFM-223 [18]; 10 nM
  normalised viability: 23.2%
CAL-51 [19]; 1 nM
  normalised viability: 102%
MDA-MB-453 [20]; 1 nM
  normalised viability: 86.1%
Hs578T [21]; 10 nM
  normalised viability: 20.1%
HCC1143 [22]; 10 nM
  normalised viability: 43.2%
CAL-120 [23]; 10 nM
  normalised viability: 55%
HCC1599 [24]; 10 nM
  normalised viability: 74.7%

## Nc1nc(F)nc2c1ncn2[C@@H]1O[C@H](CO)[C@@H](O)[C@@H]1O [Fludarabine]
DU-4475 [1]; 1 nM
  normalised viability: 101%
MDA-MB-436 [2]; 1 nM
  normalised viability: 90.5%
CAL-85-1 [3]; 1 nM
  normalised viability: 92.8%
HCC1937; 1 nM
  normalised viability: 105%
BT-549; 1 nM
  normalised viability: 110%
BT-474 [4]; 1 nM
  normalised viability: 67.6%
MDA-MB-468; 1 nM
  normalised viability: 91.2%
MFM-223 [5]; 1 nM
  normalised viability: 101%
CAL-51 [6]; 1 nM
  normalised viability: 103%
MDA-MB-453 [7]; 1 nM
  normalised viability: 102%
Hs578T [8]; 1 nM
  normalised viability: 109%
CAL-148 [9]; 1 nM
  normalised viability: 81.9%
SK-BR-3; 1 nM
  normalised viability: 98.7%
HDQ-P1; 1 nM
  normalised viability: 134%
HCC1143 [10]; 1 nM
  normalised viability: 86.8%
CAL-120 [11]; 1 nM
  normalised viability: 83%
HCC1599 [12]; 1 nM
  normalised viability: 92.6%
MDA-MB-231; 1 nM
  normalised viability: 89.1%
CAL-85-1 [13]; 1000 nM
  normalised viability: 93.8%
CAL-148 [14]; 1000 nM
  normalised viability: 93.8%
DU-4475 [15]; 10 nM
  normalised viability: 115%
MDA-MB-436 [16]; 100 nM
  normalised viability: 95.2%
BT-474 [17]; 100 nM
  normalised viability: 107%
MFM-223 [18]; 100 nM
  normalised viability: 92.8%
CAL-51 [19]; 10 nM
  normalised viability: 101%
MDA-MB-453 [20]; 10 nM
  normalised viability: 109%
Hs578T [21]; 100 nM
  normalised viability: 95.4%
HCC1143 [22]; 100 nM
  normalised viability: 83%
CAL-120 [23]; 100 nM
  normalised viability: 82.2%
HCC1599 [24]; 100 nM
  normalised viability: 105%

## O=C(Cc1ccc(-c2ccc(OCCN3CCOCC3)cc2)cn1)NCc1ccccc1 [KX2-391]
DU-4475 [1]; 1 nM
  normalised viability: 103%
MDA-MB-436 [2]; 1 nM
  normalised viability: 89%
CAL-85-1 [3]; 1 nM
  normalised viability: 84.6%
HCC1937; 1 nM
  normalised viability: 93.7%
BT-549; 1 nM
  normalised viability: 124%
BT-474 [4]; 1 nM
  normalised viability: 79.1%
MDA-MB-468; 1 nM
  normalised viability: 113%
MFM-223 [5]; 1 nM
  normalised viability: 91.7%
CAL-51 [6]; 1 nM
  normalised viability: 106%
MDA-MB-453 [7]; 1 nM
  normalised viability: 116%
Hs578T [8]; 1 nM
  normalised viability: 130%
CAL-148 [9]; 1 nM
  normalised viability: 107%
SK-BR-3; 1 nM
  normalised viability: 105%
HDQ-P1; 1 nM
  normalised viability: 138%
HCC1143 [10]; 1 nM
  normalised viability: 92.7%
CAL-120 [11]; 1 nM
  normalised viability: 93.8%
HCC1599 [12]; 1 nM
  normalised viability: 85.8%
MDA-MB-231; 1 nM
  normalised viability: 92.8%
CAL-85-1 [13]; 1000 nM
  normalised viability: 33.9%
CAL-148 [14]; 1000 nM
  normalised viability: 18.4%
DU-4475 [15]; 10 nM
  normalised viability: 94.4%
MDA-MB-436 [16]; 100 nM
  normalised viability: 59.9%
BT-474 [17]; 100 nM
  normalised viability: 63.5%
MFM-223 [18]; 100 nM
  normalised viability: 52.8%
CAL-51 [19]; 10 nM
  normalised viability: 101%
MDA-MB-453 [20]; 10 nM
  normalised viability: 107%
Hs578T [21]; 100 nM
  normalised viability: 20.7%
HCC1143 [22]; 100 nM
  normalised viability: 33%
CAL-120 [23]; 100 nM
  normalised viability: 27.6%
HCC1599 [24]; 100 nM
  normalised viability: 88%

## N#Cc1ccc(C(c2ccc(C#N)cc2)n2cncn2)cc1 [Letrozole]
DU-4475 [1]; 1 nM
  normalised viability: 96.3%
MDA-MB-436 [2]; 1 nM
  normalised viability: 114%
CAL-85-1 [3]; 1 nM
  normalised viability: 83.2%
HCC1937; 1 nM
  normalised viability: 97.8%
BT-549; 1 nM
  normalised viability: 105%
BT-474 [4]; 1 nM
  normalised viability: 73.4%
MDA-MB-468; 1 nM
  normalised viability: 90.6%
MFM-223 [5]; 1 nM
  normalised viability: 49.6%
CAL-51 [6]; 1 nM
  normalised viability: 108%
MDA-MB-453 [7]; 1 nM
  normalised viability: 96.4%
Hs578T [8]; 1 nM
  normalised viability: 94.5%
CAL-148 [9]; 1 nM
  normalised viability: 107%
SK-BR-3; 1 nM
  normalised viability: 86.8%
HDQ-P1; 1 nM
  normalised viability: 90.9%
HCC1143 [10]; 1 nM
  normalised viability: 73.7%
CAL-120 [11]; 1 nM
  normalised viability: 74.3%
HCC1599 [12]; 1 nM
  normalised viability: 103%
MDA-MB-231; 1 nM
  normalised viability: 78.8%
CAL-85-1 [13]; 1000 nM
  normalised viability: 84.8%
CAL-148 [14]; 1000 nM
  normalised viability: 86%
DU-4475 [15]; 10 nM
  normalised viability: 99.8%
MDA-MB-436 [16]; 100 nM
  normalised viability: 106%
BT-474 [17]; 100 nM
  normalised viability: 102%
MFM-223 [18]; 100 nM
  normalised viability: 74.9%
CAL-51 [19]; 10 nM
  normalised viability: 110%
MDA-MB-453 [20]; 10 nM
  normalised viability: 88%
Hs578T [21]; 100 nM
  normalised viability: 88.1%
HCC1143 [22]; 100 nM
  normalised viability: 77.9%
CAL-120 [23]; 100 nM
  normalised viability: 76.4%
HCC1599 [24]; 100 nM
  normalised viability: 104%
